The experiment deals with T1, human LPA1 receptor (Homo sapiens, UniProt Q92633).
T1 construct: TEV protease site; Gal4-VP16 transcription factor; host or cells: Tango EDG2-bla U2OS cells
Put plainly: Beta-arrestin recruitment assay to determine IC50 values for human LPAR1. Type of experiment: cell-based. As to conditions: Tango EDG2-bla U2OS cells, antagonist assay, LPA 18:1 500 nM final. The source says: Beta-Arrestin Recruitment Assay to Determine IC50 Values for Human LPAR1
The Tango™ EDG2-bla U2OS cells are obtained from Invitrogen. These cells contain the human LPA1 receptor cDNA linked to a TEV protease site and a Gal4-VP16 transcription factor integrated into the Tango™ GPCR-bla U2OS parental cell line. This parental cell line stably expresses a beta-arrestin/TEV protease fusion protein and the beta-lactamase (bla) reporter gene under the control of a UAS response element. Upon LPA (agonist) binding, LPA1 receptor gets activated, leading to arrestin-protease recruitment and proteolytic release of the transcription factor: The transcription factor then regulates transcription of a beta-lactamase reporter construct, which is measured upon addition of the live-cell substrate.
10′000 Tango™ EDG2-bla U2OS cells are seeded in a 384-well black with clear bottom plate in 30 μl Freestyle 293 Expression Medium (Invitrogen) and incubated for 20 h at 37° C., 5% CO2. For antagonist assays, 5 μl of test compound (dilution series in DMSO/Freestyle 293 Expression medium/0.1% fatty acid free BSA (Sigma)) or buffer control are added per well and incubated for 30 min at 37° C., 5% CO2. 5 μl of LPA 18:1 (500 nM final) (solution in Freestyle 293 Expression medium/0.1% fatty acid free BSA (Sigma)) are added per well and the plate incubated for 16 h at 37° C., 5% CO2. Cells are then loaded with LiveBLAzer-FRET™ B/G Substrate (Invitrogen) for 2 h in the dark and the fluorescence emission at 460 nm and 530 nm is measured using the SynergyMx reader (BioTek). Following the background subtraction from both channels, the 460/530 nm emission ratio for each well is calculated, then plotted and fitted to a 4-parameter logistic function to obtain IC50 values. IC50 is the concentration of antagonist inhibiting 50% of the maximal response.
For orientation: Activated receptors often draw arrestin, which recruitment assays turn into a signal.

The term IC50 denotes the concentration that inhibits the measured activity by half.

T1 sequence (Q92633 whole entry, the tested form may be a part): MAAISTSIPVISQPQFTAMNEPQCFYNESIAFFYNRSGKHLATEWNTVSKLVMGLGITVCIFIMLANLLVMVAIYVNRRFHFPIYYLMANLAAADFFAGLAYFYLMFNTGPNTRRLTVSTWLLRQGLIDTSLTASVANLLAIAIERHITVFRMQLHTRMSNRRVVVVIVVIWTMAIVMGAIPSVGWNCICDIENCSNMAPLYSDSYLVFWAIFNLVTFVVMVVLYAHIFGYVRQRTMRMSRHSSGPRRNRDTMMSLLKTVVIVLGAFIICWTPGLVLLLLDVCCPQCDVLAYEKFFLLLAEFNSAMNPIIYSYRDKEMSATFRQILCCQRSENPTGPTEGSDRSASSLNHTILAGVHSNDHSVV

On to `COc1cc(Cl)ncc1NC(=O)C1(c2ccccc2C(C)C)CN(C[C@@H]2COC(C)(C)O2)C1` [Example 18-11, (R)-N-(6-chloro-4-methoxypyridin-3-yl)-1-((2,2-dimethyl-1,3-dioxolan-4-yl)methyl)-3-(2-isopropylphenyl)azetidine-3-carboxamide], for which the IC50 came to 136 nM. Take `COc1cc(Cl)ncc1NC(=O)C1(c2ccccc2C(C)C)CN(C[C@@H](O)CO)C1` [Example 18-12, (R)-N-(6-chloro-4-methoxypyridin-3-yl)-1-(2,3-dihydroxypropyl)-3-(2-isopropylphenyl)azetidine-3-carboxamide]: the half-inhibitory concentration (IC50) was 28 nM.

For `COc1cc(Cl)ncc1NC(=O)C1(c2ccccc2C(C)C)CN(Cc2cc[nH]n2)C1` [Example 18-13, 1-((1H-pyrazol-3-yl)methyl)-N-(6-chloro-4-methoxypyridin-3-yl)-3-(2-isopropylphenyl)azetidine-3-carboxamide], the 50% inhibitory concentration (IC50) was determined as 129 nM. Take `COc1cc(Cl)ncc1NC(=O)C1(c2ccccc2C(C)C)CN(Cc2cn[nH]c2)C1` [Example 18-14, 1-((1H-pyrazol-4-yl)methyl)-N-(6-chloro-4-methoxypyridin-3-yl)-3-(2-isopropylphenyl)azetidine-3-carboxamide]: the IC50 worked out at 74 nM. Regarding `COc1cc(Cl)ncc1NC(=O)C1(c2ccccc2C(C)C)CN(Cc2c[nH]nn2)C1` [Example 18-15, 1-((1H-1,2,3-triazol-4-yl)methyl)-N-(6-chloro-4-methoxypyridin-3-yl)-3-(2-isopropylphenyl)azetidine-3-carboxamide], the IC50 was 61 nM.

As for `COC(=O)C(C)(C)CCN1CC(C(=O)Nc2cnc(Cl)cc2OC)(c2ccccc2C(C)C)C1` [Example 18-16, methyl 4-(3-((6-chloro-4-methoxypyridin-3-yl)carbamoyl)-3-(2-isopropylphenyl)azetidin-1-yl)-2,2-dimethylbutanoate], the 50% inhibitory concentration (IC50) turned out to be 111 nM.

`COc1cc(Cl)ncc1NC(=O)C1(c2ccccc2C(C)C)CN(CCC(C)(C)C(=O)O)C1` [Example 18-17, 4-(3-((6-chloro-4-methoxypyridin-3-yl)carbamoyl)-3-(2-isopropylphenyl)azetidin-1-yl)-2,2-dimethylbutanoic acid]: the 50% inhibitory concentration (IC50) was found to be 27 nM.

As to `CCOc1cc(Cl)ncc1NC(=O)C1(c2ccccc2C(C)C)CN(CCC(C)(C)C(=O)OC)C1` [Example 18-18, methyl 4-(3-((6-chloro-4-ethoxypyridin-3-yl)carbamoyl)-3-(2-isopropylphenyl)azetidin-1-yl)-2,2-dimethylbutanoate], the IC50 is 142 nM. As for `CCOc1cc(Cl)ncc1NC(=O)C1(c2ccccc2C(C)C)CN(CCC(C)(C)C(=O)O)C1` [Example 18-19, 4-(3-((6-chloro-4-ethoxypyridin-3-yl)carbamoyl)-3-(2-isopropylphenyl)azetidin-1-yl)-2,2-dimethylbutanoic acid], the IC50 worked out at 21 nM.

`CC(C)Oc1cc(Cl)ncc1NC(=O)C1(c2ccccc2C(C)C)CN(CCC(C)(C)C(=O)O)C1` [Example 18-20, 4-(3-((6-chloro-4-isopropoxypyridin-3-yl)carbamoyl)-3-(2-isopropylphenyl)azetidin-1-yl)-2,2-dimethylbutanoic acid]: the half-inhibitory concentration (IC50) was found to be 16 nM.

For `COC(=O)C(C)(C)CCN1CCC(C(=O)Nc2cnc(Cl)cc2OC)(c2ccccc2C(C)C)CC1` [Example 18-21, methyl 4-(4-((6-chloro-4-methoxypyridin-3-yl)carbamoyl)-4-(2-isopropylphenyl)piperidin-1-yl)-2,2-dimethylbutanoate], the half-inhibitory concentration (IC50) amounted to 19 nM. Take `COc1cc(Cl)ncc1NC(=O)C1(c2ccccc2C(C)C)CCN(CCC(C)(C)C(=O)O)CC1` [Example 18-22, 4-(4-((6-chloro-4-methoxypyridin-3-yl)carbamoyl)-4-(2-isopropylphenyl)piperidin-1-yl)-2,2-dimethylbutanoic acid]: the concentration for half-maximal inhibition (IC50) stood at 79 nM. On to `COc1cc(Br)ncc1NC(=O)C1(c2ccccc2C(C)C)CN(CCC(C)(C)C(=O)O)C1` [Example 18-23, 4-(3-((6-bromo-4-methoxypyridin-3-yl)carbamoyl)-3-(2-isopropylphenyl)azetidin-1-yl)-2,2-dimethylbutanoic acid], for which the half-maximal inhibitory concentration (IC50) worked out at 56 nM. With `CCOC(=O)C(C)(C)CCCN1CC(C(=O)Nc2cnc(Cl)cc2OC)(c2ccccc2C(C)C)C1` [Example 18-24, ethyl 5-(3-((6-chloro-4-methoxypyridin-3-yl)carbamoyl)-3-(2-isopropylphenyl)azetidin-1-yl)-2,2-dimethylpentanoate], the IC50 turned out to be 156 nM.

As for `COc1cc(Cl)ncc1NC(=O)C1(c2ccccc2C(C)C)CN(CCCC(C)(C)C(=O)O)C1` [Example 18-25, 5-(3-((6-chloro-4-methoxypyridin-3-yl)carbamoyl)-3-(2-isopropylphenyl)azetidin-1-yl)-2,2-dimethylpentanoic acid], the IC50 is 47 nM. `CCOC(=O)C(C)(C)CCCN1CC(C(=O)Nc2cnc(Cl)cc2OCC)(c2ccccc2C(C)C)C1` [Example 18-26, ethyl 5-(3-((6-chloro-4-ethoxypyridin-3-yl)carbamoyl)-3-(2-isopropylphenyl)azetidin-1-yl)-2,2-dimethylpentanoate]: the half-inhibitory concentration (IC50) amounted to 72 nM. In the case of `CCOc1cc(Cl)ncc1NC(=O)C1(c2ccccc2C(C)C)CN(CCCC(C)(C)C(=O)O)C1` [Example 18-27, 5-(3-((6-chloro-4-ethoxypyridin-3-yl)carbamoyl)-3-(2-isopropylphenyl)azetidin-1-yl)-2,2-dimethylpentanoic acid], the IC50 came out at 21 nM. Under `COc1cc(Cl)ncc1NC(=O)C1(c2ccccc2C(C)C)CN(CCNS(N)(=O)=O)C1` [Example 18-28, N-(6-chloro-4-methoxypyridin-3-yl)-3-(2-isopropylphenyl)-1-(2-(sulfamoylamino)ethyl)azetidine-3-carboxamide] stands 17 nM. Regarding `COc1cc(Cl)ncc1NC(=O)C1(c2ccccc2C(C)C)CN(C(=O)CCO)C1` [Example 19-1, N-(6-chloro-4-methoxypyridin-3-yl)-1-(3-hydroxypropanoyl)-3-(2-isopropylphenyl)azetidine-3-carboxamide], the half-maximal inhibitory concentration (IC50) was 127 nM.

On to `COc1cc(Cl)ncc1NC(=O)C1(c2ccccc2C(C)C)CN(C(C)=O)C1` [Example 19-2, 1-acetyl-N-(6-chloro-4-methoxypyridin-3-yl)-3-(2-isopropylphenyl)azetidine-3-carboxamide], for which the IC50 was 19 nM. With `COc1cc(Cl)ncc1NC(=O)C1(c2ccccc2C(C)C)CN(C=O)C1` [Example 19-3, N-(6-chloro-4-methoxypyridin-3-yl)-1-formyl-3-(2-isopropylphenyl)azetidine-3-carboxamide], the IC50 is 9 nM. Regarding `COc1cc(Cl)ncc1NC(=O)C1(c2ccccc2C(C)C)CN(C(=O)C2COC2)C1` [Example 19-4, N-(6-chloro-4-methoxypyridin-3-yl)-3-(2-isopropylphenyl)-1-(oxetane-3-carbonyl)azetidine-3-carboxamide], the IC50 was determined as 385 nM. `COc1cc(Cl)ncc1NC(=O)C1(c2ccccc2C(C)C)CN(C(=O)c2cc(O)no2)C1` [Example 19-5, N-(6-chloro-4-methoxypyridin-3-yl)-1-(3-hydroxyisoxazole-5-carbonyl)-3-(2-isopropylphenyl)azetidine-3-carboxamide]: the IC50 came to 270 nM.

These data come from patent US12479820B2, “Pyridin-3-yl derivatives” (Idorsia Pharmaceuticals Ltd, priority 2019, dated 2025).
